Data on 1 compound can be found in article PMC5931096, “A Phase I study of the novel immunomodulatory agent PG545 (pixatimod) in subjects with advanced solid tumours” (British Journal of Cancer, 2018).

The test system of one assay is pDC and NK cells. Description: Flow cytometry of PBMC for DC and NK cell activation. It counts as in vivo, human. As to the method:
(§1) Plasma and peripheral blood mononuclear cell (PBMC) samples were obtained at various points for PD assessment with the exception of the 25 mg cohort, where PBMC were not collected. Plasma samples were analysed for the concentration of various markers, including cytokines, chemokines and heparanase using commercial ELISA (LifeSpan Biosciences, Seattle, WA), and array kits (Quansys, Logan, UT).
Cryopreserved PBMC samples were analysed by flow cytometry for changes in abundance and activation status of DC and NK cells at day 3 post-treatment compared with pre-dose samples (day 1). Given the stimulatory nature of PG545 via TLR9 reported in mice,[18] efforts were primarily focussed on the assessments of pDC and NK cells though certain subjects with available sample underwent additional analyses. To assess pDC, cells were stained with antibodies to HLADR-peCy7, CD303-FITC, IFNα-647 (BD Biosciences, Franklin Lakes, NJ). To assess NK cells, cells were stained with antibodies to CD335-PE, CD3-APC, IFNγ-FITC (BD Biosciences). All intracellular cytokine staining samples were stimulated by 100 ng/mL PMA, 100 ng/mL ionomycin and 5 μg/mL Brefeldin A for 4 h at 37 °C. Samples were acquired using FACSCanto flow cytometers (BD Biosciences).
(In general: In flow cytometry, cells or beads pass a laser one at a time.)

The test system of another assay is heparanase. Particulars: cited from earlier work.
Assay [1] has as its system plasma IFNγ, TNFα, IP-10 and MCP-1. Description: Plasma cytokine/chemokine biomarkers (ELISA, array kits). The assay is classed as in vivo, human. The protocol: as §1

As to `CC(C)CCC[C@@H](C)[C@H]1CC[C@H]2[C@@H]3CC[C@H]4C[C@@H](O[C@@H]5O[C@H](COS(=O)(=O)O)[C@@H](O[C@H]6O[C@H](COS(=O)(=O)O)[C@@H](O[C@H]7O[C@H](COS(=O)(=O)O)[C@@H](O[C@H]8O[C@H](COS(=O)(=O)O)[C@@H](OS(=O)(=O)O)[C@H](OS(=O)(=O)O)[C@H]8OS(=O)(=O)O)[C@H](OS(=O)(=O)O)[C@H]7OS(=O)(=O)O)[C@H](OS(=O)(=O)O)[C@H]6OS(=O)(=O)O)[C@H](OS(=O)(=O)O)[C@H]5OS(=O)(=O)O)CC[C@]4(C)[C@H]3CC[C@]12C` [PG545], in the assay on pDC and NK cells (150 mg cohort), the “pDC and NK cell activation parameters” value is given as “unaffected or modestly responsive”. In the assay on pDC and NK cells (50 and 100 mg, 2 days after initial dose), the “Subjects with at least two-fold increased numbers of activated pDC or NK cells” value is recorded as “six of the ten”. The Anti-heparanase activity entry in the assay with heparanase was “strong anti-heparanase activity”. Also, in assay [1] (150 mg vs 100 mg cohort averages), the “Increases in TNFα, IL-6 and IL-8 responses” value is on record as “strikingly higher at 150 mg”. Further, the “Increase in plasma IFNγ, TNFα, IP-10 (CXCL10) and MCP-1 (CCL2)” value in assay [1] (after initial dose) is on record as “up to 25 fold”.
